From ChEMBL document CHEMBL1201862, “PubChem BioAssay data set” (2004)
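These data come from cells grown in 96-well plates and exposed to compound for 48 hours at five concentrations. GI50 marks 50% less growth.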 The source made the active and inactive calls. Cut-off read from the data, not from the text of the source: active = GI50 up to about 1.1 µM and inactive = higher.

Key:
Test in all cases: NCI-60 cell line screen, 48 h
786-0 = system: 786-0
A498 = system: A498
A549 = system: A549
ACHN = system: ACHN
CAKI-1 = system: CAKI-1
CCRF-CEM = system: CCRF-CEM
COLO 205 = system: COLO 205
DLD-1 = system: DLD-1
DMS-114 = system: DMS-114
DMS-273 = system: DMS-273
EKVX = system: EKVX
HCC 2998 = system: HCC 2998
HCT-116 = system: HCT-116
HCT-15 = system: HCT-15
HL-60 = system: HL-60
HOP-18 = system: HOP-18
HOP-62 = system: HOP-62
HOP-92 = system: HOP-92
HT-29 = system: HT-29
IGROV-1 = system: IGROV-1
K562 = system: K562
KM-20L2 = system: KM-20L2
KM12 = system: KM12
LOX IMVI = system: LOX IMVI
LXFL 529 = system: LXFL 529
M14 = system: M14
M19-MEL = system: M19-MEL
MOLT-4 = system: MOLT-4
Malme-3M = system: Malme-3M
NCI-H226 = system: NCI-H226
NCI-H23 = system: NCI-H23
NCI-H460 = system: NCI-H460
NCI-H522 = system: NCI-H522
OVCAR-3 = system: OVCAR-3
OVCAR-4 = system: OVCAR-4
OVCAR-5 = system: OVCAR-5
OVCAR-8 = system: OVCAR-8
RPMI-8226 = system: RPMI-8226
RXF 631 = system: RXF 631
SF-268 = system: SF-268
SF-295 = system: SF-295
SF-539 = system: SF-539
SK-MEL-28 = system: SK-MEL-28
SK-MEL-2 = system: SK-MEL-2
SK-MEL-5 = system: SK-MEL-5
SK-OV-3 = system: SK-OV-3
SN12C = system: SN12C
SNB-19 = system: SNB-19
SNB-75 = system: SNB-75
SNB-78 = system: SNB-78
SR = system: SR
SW-620 = system: SW-620
TK-10 = system: TK-10
U-251 = system: U-251
UACC-257 = system: UACC-257
UACC-62 = system: UACC-62
UO-31 = system: UO-31
XF498 = system: XF498
RXF 393 = system: RXF 393

## Cc1ccc(NC(=O)CC(=O)n2nc(-c3ccccc3)c(/N=N/c3ccccc3Cl)c2-c2ccccc2)cc1
786-0
  GI50: 32.6 µM (inactive)
A498
  GI50: 34 µM (inactive)
A549
  GI50: 98.2 µM (inactive)
ACHN
  GI50: 49.9 µM (inactive)
CAKI-1
  GI50: 42.6 µM (inactive)
CCRF-CEM
  GI50: 41.4 µM (inactive)
COLO 205
  GI50: > 10 µM (inactive)
DLD-1
  GI50: > 10 µM (inactive)
DMS-114
  GI50: > 10 µM (inactive)
DMS-273
  GI50: 41.8 µM (inactive)
EKVX
  GI50: 88.9 µM (inactive)
HCC 2998
  GI50: > 10 µM (inactive)
HCT-116
  GI50: 39.5 µM (inactive)
HCT-15
  GI50: > 10 µM
HL-60
  GI50: 0.458 µM (active)
HOP-18
  GI50: 38.1 µM (inactive)
HOP-62
  GI50: 83.8 µM (inactive)
HOP-92
  GI50: 23.6 µM (inactive)
HT-29
  GI50: > 10 µM (inactive)
IGROV-1
  GI50: > 10 µM (inactive)
K562
  GI50: 94.8 µM (inactive)
KM-20L2
  GI50: > 10 µM (inactive)
KM12
  GI50: > 10 µM (inactive)
LOX IMVI
  GI50: 92.5 µM (inactive)
LXFL 529
  GI50: 71.8 µM (inactive)
M14
  GI50: 88.3 µM (inactive)
M19-MEL
  GI50: > 10 µM (inactive)
MOLT-4
  GI50: > 10 µM (inactive)
Malme-3M
  GI50: 48.3 µM (inactive)
NCI-H226
  GI50: > 10 µM (inactive)
NCI-H23
  GI50: 39.5 µM (inactive)
NCI-H460
  GI50: 75.5 µM (inactive)
NCI-H522
  GI50: 65.8 µM (inactive)
OVCAR-3
  GI50: > 10 µM (inactive)
OVCAR-4
  GI50: 26.5 µM (inactive)
OVCAR-5
  GI50: 19.4 µM (inactive)
OVCAR-8
  GI50: 42.5 µM (inactive)
RPMI-8226
  GI50: > 10 µM (inactive)
RXF 631
  GI50: 96.2 µM (inactive)
SF-268
  GI50: > 10 µM (inactive)
SF-295
  GI50: 48 µM (inactive)
SF-539
  GI50: 76.6 µM (inactive)
SK-MEL-28
  GI50: 62.2 µM (inactive)
SK-MEL-2
  GI50: > 10 µM (inactive)
SK-MEL-5
  GI50: 67.1 µM (inactive)
SK-OV-3
  GI50: 27 µM (inactive)
SN12C
  GI50: > 10 µM (inactive)
SNB-19
  GI50: 38.8 µM (inactive)
SNB-75
  GI50: 16.4 µM (inactive)
SNB-78
  GI50: > 10 µM (inactive)
SR
  GI50: > 100 µM (inactive)
SW-620
  GI50: 92 µM (inactive)
TK-10
  GI50: 83.9 µM (inactive)
U-251
  GI50: 60.8 µM (inactive)
UACC-257
  GI50: > 10 µM (inactive)
UACC-62
  GI50: 45.4 µM (inactive)
UO-31
  GI50: > 10 µM (inactive)
XF498
  GI50: 49 µM (inactive)

## O=C1C=CC2=[N+]([O-])C(c3ccccc3)(c3ccccc3)/C(=N\c3ccccc3)C2=C1
A549
  GI50: 15.4 µM (inactive)
ACHN
  GI50: 1.74 µM (inactive)
CAKI-1
  GI50: 2.44 µM (inactive)
CCRF-CEM
  GI50: 0.407 µM (active)
DLD-1
  GI50: 1.53 µM (inactive)
DMS-114
  GI50: 1.85 µM (inactive)
DMS-273
  GI50: 2.38 µM (inactive)
EKVX
  GI50: 4.14 µM (inactive)
HCC 2998
  GI50: 6.3 µM (inactive)
HCT-116
  GI50: 1.97 µM (inactive)
HCT-15
  GI50: 2.03 µM
HL-60
  GI50: 0.349 µM (active)
HOP-18
  GI50: 2.92 µM (inactive)
HOP-62
  GI50: 14.6 µM (inactive)
HOP-92
  GI50: 1.7 µM (inactive)
HT-29
  GI50: 2.41 µM (inactive)
IGROV-1
  GI50: 1.82 µM (inactive)
K562
  GI50: 2.1 µM (inactive)
KM-20L2
  GI50: 2.34 µM (inactive)
LOX IMVI
  GI50: 1.8 µM (inactive)
LXFL 529
  GI50: 1.78 µM (inactive)
M14
  GI50: 1.97 µM (inactive)
M19-MEL
  GI50: 1.77 µM (inactive)
MOLT-4
  GI50: 1.27 µM (inactive)
Malme-3M
  GI50: 2.29 µM (inactive)
NCI-H226
  GI50: 8.89 µM (inactive)
NCI-H23
  GI50: 2.38 µM (inactive)
NCI-H460
  GI50: 11 µM (inactive)
NCI-H522
  GI50: 1.61 µM (inactive)
OVCAR-3
  GI50: 1.82 µM (inactive)
OVCAR-4
  GI50: 1.8 µM (inactive)
OVCAR-5
  GI50: 16.4 µM (inactive)
OVCAR-8
  GI50: 1.75 µM (inactive)
RPMI-8226
  GI50: 2.96 µM (inactive)
RXF 393
  GI50: 1.6 µM (inactive)
RXF 631
  GI50: 3.05 µM (inactive)
SF-268
  GI50: 3.28 µM (inactive)
SF-295
  GI50: 14.5 µM (inactive)
SF-539
  GI50: 6.85 µM (inactive)
SK-MEL-2
  GI50: 18.2 µM (inactive)
SK-MEL-5
  GI50: 14.2 µM (inactive)
SK-OV-3
  GI50: 17.8 µM (inactive)
SN12C
  GI50: 2.22 µM (inactive)
SNB-19
  GI50: 17.2 µM (inactive)
SNB-75
  GI50: 3.22 µM (inactive)
SNB-78
  GI50: 3.74 µM (inactive)
SR
  GI50: 0.269 µM (active)
SW-620
  GI50: 1.91 µM (inactive)
TK-10
  GI50: 1.8 µM (inactive)
U-251
  GI50: 2.5 µM (inactive)
UACC-257
  GI50: 2.38 µM (inactive)
UACC-62
  GI50: 2.1 µM (inactive)
UO-31
  GI50: 2.21 µM (inactive)
XF498
  GI50: 1.31 µM (inactive)
